In PubChem BioAssay AID248 (DTP/NCI, 2004):
Where “and” joins values, the source holds several entries; their conditions need not be identical. Identical values can stand only once. Inconclusive results and toxic doses are left out. Rule as the data show it: active = T/C of 150% or more; inactive = T/C below 125%.

Test system: L1210 leukemia ip in BDF1 mice, survival T/C
Assay: NCI In Vivo Anticancer Drug Screen. Data for tumor model L1210 Leukemia (intraperitoneal) in B6D2F1 (BDF1) mice
Settings: endpoint: mean survival time, higher = longer survival
Outline: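 Survival endpoint. Drug-treated group vs vehicle group, expressed as T divided by C. Tumor passaged by transplantation.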

[1] = dose: 100.0 mg/kg/injection, schedule: Q01DX001 (ip), vehicle: carboxymethylcellulose (CMC)
[2] = dose: 200.0 mg/kg/injection, schedule: Q01DX001 (ip), vehicle: carboxymethylcellulose (CMC)
[3] = dose: 400.0 mg/kg/injection, schedule: Q01DX001 (ip), vehicle: carboxymethylcellulose (CMC)
[4] = dose: 100.0 mg/kg/injection, schedule: Q04DX003 (ip), vehicle: Klucel (hydroxypropylcellulose) (HPC)
[5] = dose: 200.0 mg/kg/injection, schedule: Q04DX003 (ip), vehicle: Klucel (hydroxypropylcellulose) (HPC)
[6] = dose: 400.0 mg/kg/injection, schedule: Q04DX003 (ip), vehicle: Klucel (hydroxypropylcellulose) (HPC)
[7] = dose: 100.0 mg/kg/injection, schedule: Q01DX009 (ip), vehicle: saline with Tween-80
[8] = dose: 200.0 mg/kg/injection, schedule: Q01DX009 (ip), vehicle: saline with Tween-80
[9] = dose: 400.0 mg/kg/injection, schedule: Q01DX009 (ip), vehicle: saline with Tween-80
[10] = dose: 100.0 mg/kg/injection, schedule: Q04DX003 (ip), vehicle: saline with Tween-80
[11] = dose: 200.0 mg/kg/injection, schedule: Q04DX003 (ip), vehicle: saline with Tween-80
[12] = dose: 400.0 mg/kg/injection, schedule: Q04DX003 (ip), vehicle: saline with Tween-80
[13] = dose: 100.0 mg/kg/injection, schedule: Q01DX001 (ip), vehicle: saline with Tween-80
[14] = dose: 200.0 mg/kg/injection, schedule: Q01DX001 (ip), vehicle: saline with Tween-80
[15] = dose: 400.0 mg/kg/injection, schedule: Q01DX001 (ip), vehicle: saline with Tween-80
[16] = dose: 100.0 mg/kg/injection, schedule: Q01DX001 (ip), vehicle: saline
[17] = dose: 200.0 mg/kg/injection, schedule: Q01DX001 (ip), vehicle: saline
[18] = dose: 400.0 mg/kg/injection, schedule: Q01DX001 (ip), vehicle: saline
[19] = dose: 100.0 mg/kg/injection, schedule: Q04DX003 (ip), vehicle: saline
[20] = dose: 200.0 mg/kg/injection, schedule: Q04DX003 (ip), vehicle: saline

Measured: T/C

CCN(CC)c1cc(C)c2cc(Cc3ccccc3)ccc2n1
inactive: [1] 98 % of control | [2] 96 % of control | [3] 101 % of control

O=C(O)CSCc1ccc(Cl)cc1
inactive: dose: 100.0 mg/kg/injection, schedule: Q01DX001 (ip), vehicle: acetone 95 % of control | [4] 94 % of control | dose: 200.0 mg/kg/injection, schedule: Q01DX001 (ip), vehicle: acetone 97 % of control | [5] 98 % of control | dose: 400.0 mg/kg/injection, schedule: Q01DX001 (ip), vehicle: acetone 97 % of control | [6] 98 % of control

Nc1ccc2c(=O)[nH][nH]c(=O)c2c1
inactive: [7] 98 % of control | [8] 98 % of control | [9] 95 % of control

Nc1ncnc(N)c1NC(=O)c1ccc(OCCCCOc2ccccc2)c(Cl)c1
inactive: [10] 101 % of control | [11] 102 % of control | [12] 96 % of control

CC(=O)CC(=O)Nc1ccccn1
inactive: [4] 97 % of control | [5] 101 % of control | [6] 98 % of control

CCCCCCCCCCCCC(=O)OC
inactive: [10] 101 % of control | [11] 96 % of control | [12] 98 % of control

CCn1c(=S)[nH]c(/C=N/N(CCO)CCO)c(C)c1=O
inactive: [13] 103 % of control | [14] 103 % of control | [15] 95 % of control

NC(=O)c1ccnn1C1OC(CO)C(O)C1O (stereo not drawn)
inactive: dose: 50.0 mg/kg/injection, schedule: Q01DX005 (ip), vehicle: water 102 % of control | dose: 100.0 mg/kg/injection, schedule: Q01DX005 (ip), vehicle: water 102 % of control | dose: 200.0 mg/kg/injection, schedule: Q01DX005 (ip), vehicle: water 105 % of control

CN(C)C(c1ccccc1)c1ccccc1
inactive: dose: 50.0 mg/kg/injection, schedule: Q01DX001 (ip), vehicle: saline 96 % of control | [16] 94 % of control | [17] 94 % of control | [18] 94 % of control

CCCCCCCCCCCCCCCCS(=O)(=O)c1ccc(S(=O)(=O)F)cc1NC(C)=O
inactive: [4] 91 % of control | dose: 200.0 mg/kg/injection, schedule: Q01DX009 (ip), vehicle: saline sonified 93 % of control | [5] 94 % of control | [6] 91 % of control

C/C(=C\Cn1ccccc1=O)CCC(=O)O
inactive: dose: 100.0 mg/kg/injection, schedule: Q01DX009 (ip), vehicle: water 100 % of control | dose: 100.0 mg/kg/injection, schedule: Q04DX003 (ip), vehicle: other 94 % of control | dose: 200.0 mg/kg/injection, schedule: Q01DX009 (ip), vehicle: water 97 % of control | dose: 200.0 mg/kg/injection, schedule: Q04DX003 (ip), vehicle: other 98 % of control | dose: 400.0 mg/kg/injection, schedule: Q01DX009 (ip), vehicle: water 96 % of control | dose: 400.0 mg/kg/injection, schedule: Q04DX003 (ip), vehicle: other 89 % of control

CC(=O)NCC1OC(COCc2ccccc2)C(OCc2ccccc2)C1OCc1ccccc1 (stereo not drawn)
inactive: [4] 107 % of control | [5] 96 % of control | [6] 107 % of control

CC1(C)CC(N=Cc2ccccc2O)CC(C)(C)N1O.CC1(C)CC(N=Cc2ccccc2O)CC(C)(C)N1O.[Co]
inactive: [10] 89 % of control | [11] 92 % of control

OC(C1CC2CCC1C2)(C1CC2CCC1C2)C1CC2CCC1C2 (stereo not drawn)
inactive: [7] 92 % of control | [4] 94 % of control | [8] 97 % of control | [5] 96 % of control | [9] 90 % of control | [6] 97 % of control

NC(N)=NC(N)=Nc1ccccc1Br
inactive: dose: 50.0 mg/kg/injection, schedule: Q01DX009 (ip), vehicle: Klucel (hydroxypropylcellulose) (HPC) 106 % of control | dose: 100.0 mg/kg/injection, schedule: Q01DX009 (ip), vehicle: Klucel (hydroxypropylcellulose) (HPC) 104 % of control | dose: 100.0 mg/kg/injection, schedule: Q04DX002 (ip), vehicle: Klucel (hydroxypropylcellulose) (HPC) 107 % of control | [4] 98 % of control | dose: 200.0 mg/kg/injection, schedule: Q04DX002 (ip), vehicle: Klucel (hydroxypropylcellulose) (HPC) 104 % of control | [5] 110 % of control

c1ccc(-c2ccc3ncccc3c2)cc1
inactive: [16] 97 % of control | [17] 100 % of control | [18] 105 % of control

COc1ccc2c(c1C)C(=O)c1ccccc1C2
inactive: [13] 93 % of control | [14] 101 % of control | [15] 90 % of control

SCC1SCCCS1
inactive: dose: 12.5 mg/kg/injection, schedule: Q04DX002 (ip), vehicle: saline with Tween-80 97 % of control | dose: 25.0 mg/kg/injection, schedule: Q04DX002 (ip), vehicle: saline with Tween-80 113 % of control | dose: 50.0 mg/kg/injection, schedule: Q04DX002 (ip), vehicle: saline with Tween-80 97 % of control

C(=N\c1ncn[nH]1)/Nc1ncn[nH]1
inactive: [19] 94 % of control | [20] 96 % of control

O=C(O)c1cccc(CCc2ccccc2)c1
inactive: dose: 100.0 mg/kg/injection, schedule: Q01DX001 (ip), vehicle: Klucel (hydroxypropylcellulose) (HPC) 102 % of control | dose: 200.0 mg/kg/injection, schedule: Q01DX001 (ip), vehicle: Klucel (hydroxypropylcellulose) (HPC) 100 % of control

CNC(=O)n1ncc2ccc([N+](=O)[O-])cc21
inactive: [16] 107 % of control | [17] 107 % of control | [18] 102 % of control

Cc1cccc(C)c1N=C(N)NN
inactive: dose: 25.0 mg/kg/injection, schedule: Q01DX009 (ip), vehicle: saline 100 % of control | dose: 50.0 mg/kg/injection, schedule: Q01DX009 (ip), vehicle: saline 101 % of control | dose: 50.0 mg/kg/injection, schedule: Q04DX003 (ip), vehicle: saline 117 % of control | [16] 96 % of control | dose: 100.0 mg/kg/injection, schedule: Q01DX009 (ip), vehicle: saline 95 % of control | [19] 106 % of control | [17] 98 % of control

CN=NNc1nc[nH]c1C(=O)OC
inactive: dose: 50.0 mg/kg/injection, schedule: Q01DX001 (ip), vehicle: carboxymethylcellulose (CMC) 118 % of control | [1] 118 % of control | [2] 118 % of control | [3] 113 % of control

C=CCc1ccc(OC(=O)Nc2ccc(SC)cc2)c(OC)c1
inactive: dose: 50.0 mg/kg/injection, schedule: Q01DX009 (ip), vehicle: saline with Tween-80 95 % of control and 87 % of control | [13] 101 % of control | dose: 100.0 mg/kg/injection, schedule: Q04DX002 (ip), vehicle: saline with Tween-80 90 % of control and 91 % of control | [10] 94 % of control | [14] 98 % of control | dose: 200.0 mg/kg/injection, schedule: Q04DX002 (ip), vehicle: saline with Tween-80 93 % of control and 100 % of control | [11] 91 % of control | [15] 97 % of control | [9] 99 % of control and 89 % of control | dose: 400.0 mg/kg/injection, schedule: Q04DX002 (ip), vehicle: saline with Tween-80 94 % of control and 88 % of control | [12] 96 % of control

CCC(C)(C1CCC(O)CC1)C1CCC(O)CC1 (stereo not drawn)
inactive: [16] 94 % of control | [17] 96 % of control | [18] 98 % of control

CC(=O)CC(=O)NC1CCCCC1
inactive: [7] 105 % of control | [10] 96 % of control | [8] 100 % of control | [11] 94 % of control | [9] 95 % of control | [12] 94 % of control

Nn1c(=S)[nH][nH]c1=S
inactive: [19] 97 % of control | [20] 103 % of control | dose: 400.0 mg/kg/injection, schedule: Q04DX003 (ip), vehicle: saline 98 % of control
